Where two headings read alike, the source gives them in different places.
System: PC-3 cell line
Assay: MTT cytotoxicity assay in PC-3
Description: The results are tabulated as IC50 values. All experiments were independently performed at least three times and the values were calculated after 72 hours exposure (drug concentrations of 2, 5, 7 and 10 μM).
PC-3 cells were seeded in 96-well plates (Millipore, Eschborn, Germany) at a density of 5 × 10^3 cells per well. The samples were incubated at 37 °C under 5% CO2 overnight prior to the addition of the compounds. Compounds were diluted in complete medium. After 3 days of incubation, 10 μL MTT solution (5 mg/mL in PBS) was added to the cells in each well and these were stored for an additional 4 h at 37 °C. […] The percentage of viable cells was calculated to obtain IC50-values.
PC-3 are human tumorigenic and metastatic prostate cancer cells and these were obtained from American Type Culture Collection (ATCC, Manassas, VA, USA) (passage 36).

[1] = Homo sapiens, PC-3, 72 h, read-out: IC50 PC-3 cell line
[2] = Homo sapiens, PC-3, read-out: IC50 (cytotoxic activity in PC-3 cell line)
[3] = 72 h exposure, MTT, drug concentrations 2, 5, 7 and 10 μM, NE = no effect is observed
[4] = read-out: IC50 PC-3 cell line, 72 h exposure, MTT, drug concentrations 2, 5, 7 and 10 μM, NE = no effect is observed

Row | Compound | IC50 [1] [µM] | IC50 [2] [µM] | IC50 PC-3 cell line [3] | IC50 [4] [µM] | IC50 (read-out: IC50 (cytotoxic activity in PC-3 cell line), as repeated in Table 5, NE = no effect) [µM]
1 | O=C(O)C[Se]C(=O)c1ccc(C(F)(F)F)cc1 [Compound 3, (4-trifluoromethylbenzoylselenyl)acetic acid] | > 10 | > 10 |  |  | 
2 | O=C(O)C[Se]C(=O)c1ccc(Cl)cc1 [Compound 4, (4-chlorobenzoylselenyl)acetic acid] | > 10 | > 10 |  |  | 
3 | Cc1ccc(C(=O)[Se]CC(=O)O)cc1 [Compound 5, (4-methylbenzoylselenyl)acetic acid] | > 10 | > 10 |  |  | 
4 | CC(C)(C)c1ccc(C(=O)[Se]CC(=O)O)cc1 [Compound 6, (4-tert-butylbenzoyl-selenyl)acetic acid] | > 10 | > 10 |  |  | 
5 | O=C(O)C[Se]C(=O)c1ccccc1Cl [Compound 8, (2-chlorobenzoylselenyl)acetic acid] | > 10 | > 10 |  |  | 
6 | O=C(O)C[Se]C(=O)c1ccccc1Br [Compound 9, (2-bromobenzoylselenyl)acetic acid] | > 10 | > 10 |  |  | 
7 | O=C(O)C[Se]C(=O)c1ccccc1I [Compound 10, (2-iodobenzoylselenyl)acetic acid] | > 10 | > 10 |  |  | 
8 | O=C(O)C[Se]C(=O)c1cc(Cl)cc(Cl)c1 [Compound 13, (3,5-dichlorobenzoylselenyl)acetic acid] | > 10 | > 10 |  |  | 
9 | COc1cc(C(=O)[Se]CC(=O)O)cc(OC)c1OC [Compound 15, (3,4,5-trimethoxybenzoylselenyl)acetic acid] | > 10 | > 10 | suppression of the antitumour activity |  | 
10 | O=C(O)C[Se]C(=O)c1ccc2c(c1)OCO2 [Compound 16, (3,4-methylenedioxy-benzoylselenyl) acetic acid] | > 10 | > 10 |  |  | 
11 | O=C(O)C[Se]C(=O)c1ccc2ccccc2c1 [Compound 17, (2-naphthoylselenyl)acetic acid] | > 10 |  |  |  | 
12 | O=C(O)C[Se]C(=O)C(c1ccccc1)c1ccccc1 [Compound 18, (diphenylacetylselenyl)acetic acid] | > 10 |  |  |  | 
13 | O=C(O)C[Se]C(=O)c1ccncc1 [Compound 19, (4-pyridoylselenyl)acetic acid] | > 10 | > 10 |  |  | 
14 | O=C(O)C[Se]C(=O)c1cccnc1 [Compound 20, (3-pyridoylselenyl)acetic acid] | > 10 | > 10 |  |  | 
15 | CCCSc1ncccc1C(=O)[Se]CC(=O)O [Compound 22, (3-(2-propylthio)pyridoylselenyl)acetic acid] | > 10 | > 10 |  |  | 
16 | O=C(O)C[Se]C(=O)c1cccs1 [Compound 23, (2-thienoylselenyl)-acetic acid] | > 10 | > 10 |  |  | 
17 | O=C(O)C[Se]C(=O)c1cnccn1 [Compound 24, (pyrazinoylselenyl)acetic acid] | > 10 | > 10 |  |  | 
18 | O=C(O)C[Se]C(=O)c1ccc2ccccc2n1 [Compound 25, (2-quinoloylselenyl)acetic acid] | > 10 |  |  |  | 
19 | O=C(O)C[Se]C(=O)c1cnc2ccccc2c1 [Compound 26, (3-quinoloylselenyl)acetic acid] | > 10 |  |  |  | 
20 | (3-phenyl-propanonylselenyl)acetic acid [Compound 12] |  |  |  | > 10 | 
21 | (4-methoxyphenylselenyl)acetic acid [Compound 7] |  |  | inactive | > 10 | > 10
